Seven compounds from US20260007678A1, “COMBINATION OF ALLOSTERIC AND ORTHOSTERIC EGFR INHIBITORS FOR THE TREATMENT OF CANCER” (Hoffmann-La Roche Inc., priority 2022, published 2026) can be followed below.

A word on the hepatocyte CLint: it is the capacity of the preparation to metabolise the compound, expressed as a volume cleared per time. A higher hepatocyte CLint goes with faster metabolism. The GI50 is the concentration giving 50% growth inhibition. A lower GI50 goes with more potent growth inhibition. In general, IC50 refers to the concentration that inhibits the measured activity by half.

Data set [1] can be described thus: In vitro metabolic stability, intrinsic clearance in hepatocytes. The class given is in vitro ADME. The note with it: primary pooled cryopreserved hepatocytes in suspension. The method, then: The in vitro metabolic stability was assessed in human and […] short-term hepatocytes suspensions. Primary pooled cryopreserved hepatocytes obtained from BioIVT (Westbury, NY, USA) were thawed and suspended in William's E medium supplemented with 10% fetal bovine serum. The suspended hepatocytes were pre-incubated at 37° C. (5% CO2) and reactions were initiated by adding the compound. Final assay conditions were 1 μM compound (final assay solvent concentration 0.01% DMSO), 1×10^6 hepatocytes/mL incubate. The mixtures were then incubated up to 2 hours at 37° C.′ (5% CO2). The reactions were stopped by placing samples on dry ice before storage at −80° C. until analysis by LC-MS/MS. The natural logarithm of the percentage initial drug concentration in the incubation samples was plotted against time and a linear regression analysis was applied using GraphPad Prism version 7.04 for Windows (GraphPad Software, La Jolla, CA) to define the slope. The in vitro hepatocyte intrinsic hepatocyte clearance rate (CLint) was calculated from the slope of the linear regression,-slope, with V representing the volume of the incubation in μL and N as the number of hepatocytes per incubation as detailed in Equation X: […]

Data set [2] has as its system Ba/F3 EGFR^L858R/C797S allograft. Description: In vivo efficacy, Ba/F3 EGFR^L858R/C797S allograft. On the set-up: species or system mice. The settings on record: Example 6 at 10 mpk, Example 3 at 30 mpk, BID po.
The target of data set [3] is Ba/F3 cell lines stably expressing EGFR^L858R/T790M/C797S (Homo sapiens, UniProt P00533, T790M/C797S/L858R, cells depend on it). Description: Cell viability assay (cell titer glo). In kind it is cell-based. On the procedure:
(§1) NCI-H3255 cells were obtained from the NCI (#CVCL_6831). Cells were maintained in a humidified incubator at 37° C. and 5% CO2. […] Verification of cell line identities and absence of cross-contaminations by other cell lines was performed through Short Tandem Repeats-PCR analysis (only human cell lines) and MALDI-TOF analysis. […] All cell lines were used for no more than 20 passages after thawing for all described experiments.
Plates were incubated for 72 hours at 37° C. After treatment with compounds, 25 μl/well CellTiter-Glo 2.0 reagent (Promega #G9243) were added and plates were incubated for 10 min at RT and luminescence was quantified according to the manufacturer's protocol.

A further data set addresses T1, EGFR^L858R/T790M (Homo sapiens, UniProt P00533, L858R/T790M).
T1 construct: expressing WT EGFR, EGFR^L858R or EGFR^L858R/T790M; host or cells: NCI-H1975
Description: HTRF cellular assay in human cancer cells H1975. The class given is cell-based. The settings on record: read-out: IC50 H1975 EGFR LRTM. On the technique in general: In TR-FRET formats the signal depends on donor and acceptor labels being close together.

The target in data set [4] is T2, EGFR kinase domain (L858R) (Homo sapiens, UniProt P00533, L858R).
T2 construct: osimertinib reacts faster with the EGFR kinase domain (L858R)
The data set is described as follows: Binding kinetics measured by stopped-flow fluorescence. From the text: FIG. 3 (A) Binding kinetics measured by stopped-flow fluorescence. […].

The target in data set [5] is T3, EGFR WT (Homo sapiens, UniProt P00533). The data set is described as follows: HTRF cellular assay in human cancer cells H2073. The class given is cell-based. On the set-up: expressing WT EGFR; host or cells: NCI-H2073. The settings on record: EGF 25 ng/ml.
A further data set deals with T4, EGFR^L858R (Homo sapiens, UniProt P00533, L858R).
T4 construct: expressing WT EGFR, EGFR^L858R or EGFR^L858R/T790M; host or cells: NCI-H3255
The data set is described as follows: HTRF cellular assay in human cancer cells H3255. In kind it is cell-based. The note with it: read-out: IC50 H3255 EGFR LR. The method, then: as §1
Control wells with medium only were also prepared. […] Plates were incubated at 37° C. for 4 hours. […] The cells were eventually lysed in HTRF lysis buffer provided by the kit (see below) and stored at −80° C. until further use. HTRF assay for pEGFR (CisBio #64EG1PEH) or pERK (CisBio #64AERPEH) was then performed according to the manufacturer's instructions.

The target in data set [6] is Ba/F3 cell lines stably expressing EGFR^L858R/C797S (Homo sapiens, UniProt P00533, C797S/L858R, cells depend on it). The data set is described as follows: Cell viability assay (cell titer glo). The class given is cell-based. The note with it: 72 hours, first value of IC50/IC90. A general note: Cellular ATP, detected with luciferase, serves as a proxy for viable cell number.

Data set [7] has as its target T3, EGFR WT. The data set is described as follows: HTRF cellular assay in human cancer cells A431. Also noted: expressing WT EGFR, EGFR^L858R or EGFR^L858R/T790M; #CRL-1555 (A431); host or cells: NCI-H2073; A431. The note with it: EGF 25 ng/ml. The class given is cell-based.
For data set [8], the system named is NCI-H1975 NSCLC-derived tumors (EGFR^L858R/T790M xenograft). The data set is described as follows: In vivo efficacy, NCI-H1975 xenograft. The note with it: alone and in combination with osimertinib, mice.

T3 sequence (P00533 25-1210): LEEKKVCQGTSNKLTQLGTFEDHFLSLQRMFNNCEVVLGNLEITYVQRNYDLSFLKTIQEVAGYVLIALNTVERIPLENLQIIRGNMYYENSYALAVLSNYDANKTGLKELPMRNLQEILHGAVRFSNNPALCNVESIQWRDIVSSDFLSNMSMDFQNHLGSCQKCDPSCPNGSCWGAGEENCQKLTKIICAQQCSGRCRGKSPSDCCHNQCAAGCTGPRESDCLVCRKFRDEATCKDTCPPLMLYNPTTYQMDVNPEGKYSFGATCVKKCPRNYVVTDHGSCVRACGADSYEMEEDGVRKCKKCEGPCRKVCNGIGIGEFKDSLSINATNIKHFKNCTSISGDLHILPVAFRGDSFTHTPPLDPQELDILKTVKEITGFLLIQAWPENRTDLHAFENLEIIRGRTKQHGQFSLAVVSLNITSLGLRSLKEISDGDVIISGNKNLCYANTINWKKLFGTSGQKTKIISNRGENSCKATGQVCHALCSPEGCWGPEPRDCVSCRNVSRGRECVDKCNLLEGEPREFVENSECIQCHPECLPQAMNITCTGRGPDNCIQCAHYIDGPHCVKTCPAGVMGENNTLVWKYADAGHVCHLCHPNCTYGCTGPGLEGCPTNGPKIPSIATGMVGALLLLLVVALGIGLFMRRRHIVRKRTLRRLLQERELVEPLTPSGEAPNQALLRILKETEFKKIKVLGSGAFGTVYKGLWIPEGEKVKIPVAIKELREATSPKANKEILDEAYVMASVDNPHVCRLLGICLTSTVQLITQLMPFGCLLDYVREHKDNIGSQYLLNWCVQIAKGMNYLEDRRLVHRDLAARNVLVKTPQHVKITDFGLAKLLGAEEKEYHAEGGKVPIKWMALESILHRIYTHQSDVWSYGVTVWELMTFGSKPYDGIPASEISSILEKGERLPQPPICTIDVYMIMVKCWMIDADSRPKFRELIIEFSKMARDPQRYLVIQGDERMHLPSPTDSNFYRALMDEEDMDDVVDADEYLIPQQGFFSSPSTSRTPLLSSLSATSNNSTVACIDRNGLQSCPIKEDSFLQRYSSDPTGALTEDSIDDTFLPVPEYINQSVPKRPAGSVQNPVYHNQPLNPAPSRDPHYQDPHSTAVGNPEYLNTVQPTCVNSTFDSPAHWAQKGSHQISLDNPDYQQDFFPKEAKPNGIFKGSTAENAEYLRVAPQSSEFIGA
T1 sequence (P00533 25-1210 T790M/L858R): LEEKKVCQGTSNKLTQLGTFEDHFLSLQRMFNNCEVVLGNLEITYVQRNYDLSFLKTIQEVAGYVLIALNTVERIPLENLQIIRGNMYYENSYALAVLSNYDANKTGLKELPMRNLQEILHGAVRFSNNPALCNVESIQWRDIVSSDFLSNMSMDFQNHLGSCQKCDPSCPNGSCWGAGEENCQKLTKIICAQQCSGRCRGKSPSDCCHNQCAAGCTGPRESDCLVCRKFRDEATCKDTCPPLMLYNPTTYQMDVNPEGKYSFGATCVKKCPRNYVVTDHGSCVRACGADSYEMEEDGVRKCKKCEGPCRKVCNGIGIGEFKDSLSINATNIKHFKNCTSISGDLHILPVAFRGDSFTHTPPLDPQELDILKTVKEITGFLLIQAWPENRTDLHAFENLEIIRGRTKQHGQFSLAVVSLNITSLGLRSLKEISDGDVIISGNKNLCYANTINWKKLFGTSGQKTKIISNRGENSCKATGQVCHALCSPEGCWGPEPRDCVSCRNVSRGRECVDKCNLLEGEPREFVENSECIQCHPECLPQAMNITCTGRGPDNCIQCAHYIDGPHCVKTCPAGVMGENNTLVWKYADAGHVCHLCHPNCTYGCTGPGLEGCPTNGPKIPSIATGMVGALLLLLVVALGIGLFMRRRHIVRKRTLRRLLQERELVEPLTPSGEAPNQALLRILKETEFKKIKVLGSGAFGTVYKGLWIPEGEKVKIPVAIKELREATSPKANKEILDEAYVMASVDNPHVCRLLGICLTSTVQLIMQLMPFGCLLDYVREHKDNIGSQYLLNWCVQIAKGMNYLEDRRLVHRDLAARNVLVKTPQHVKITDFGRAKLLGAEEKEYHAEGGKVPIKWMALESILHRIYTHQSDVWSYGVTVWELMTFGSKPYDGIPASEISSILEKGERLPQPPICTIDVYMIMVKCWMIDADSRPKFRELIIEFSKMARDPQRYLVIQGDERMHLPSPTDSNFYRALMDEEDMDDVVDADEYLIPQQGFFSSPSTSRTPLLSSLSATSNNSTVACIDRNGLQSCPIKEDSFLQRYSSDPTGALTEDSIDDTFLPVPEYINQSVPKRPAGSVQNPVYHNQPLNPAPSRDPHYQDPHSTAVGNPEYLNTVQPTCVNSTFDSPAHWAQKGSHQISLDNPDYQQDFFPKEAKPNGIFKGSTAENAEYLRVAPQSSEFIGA
Chain of Ba/F3 cell lines stably expressing EGFR^L858R/T790M/C797S (P00533 whole entry T790M/C797S/L858R): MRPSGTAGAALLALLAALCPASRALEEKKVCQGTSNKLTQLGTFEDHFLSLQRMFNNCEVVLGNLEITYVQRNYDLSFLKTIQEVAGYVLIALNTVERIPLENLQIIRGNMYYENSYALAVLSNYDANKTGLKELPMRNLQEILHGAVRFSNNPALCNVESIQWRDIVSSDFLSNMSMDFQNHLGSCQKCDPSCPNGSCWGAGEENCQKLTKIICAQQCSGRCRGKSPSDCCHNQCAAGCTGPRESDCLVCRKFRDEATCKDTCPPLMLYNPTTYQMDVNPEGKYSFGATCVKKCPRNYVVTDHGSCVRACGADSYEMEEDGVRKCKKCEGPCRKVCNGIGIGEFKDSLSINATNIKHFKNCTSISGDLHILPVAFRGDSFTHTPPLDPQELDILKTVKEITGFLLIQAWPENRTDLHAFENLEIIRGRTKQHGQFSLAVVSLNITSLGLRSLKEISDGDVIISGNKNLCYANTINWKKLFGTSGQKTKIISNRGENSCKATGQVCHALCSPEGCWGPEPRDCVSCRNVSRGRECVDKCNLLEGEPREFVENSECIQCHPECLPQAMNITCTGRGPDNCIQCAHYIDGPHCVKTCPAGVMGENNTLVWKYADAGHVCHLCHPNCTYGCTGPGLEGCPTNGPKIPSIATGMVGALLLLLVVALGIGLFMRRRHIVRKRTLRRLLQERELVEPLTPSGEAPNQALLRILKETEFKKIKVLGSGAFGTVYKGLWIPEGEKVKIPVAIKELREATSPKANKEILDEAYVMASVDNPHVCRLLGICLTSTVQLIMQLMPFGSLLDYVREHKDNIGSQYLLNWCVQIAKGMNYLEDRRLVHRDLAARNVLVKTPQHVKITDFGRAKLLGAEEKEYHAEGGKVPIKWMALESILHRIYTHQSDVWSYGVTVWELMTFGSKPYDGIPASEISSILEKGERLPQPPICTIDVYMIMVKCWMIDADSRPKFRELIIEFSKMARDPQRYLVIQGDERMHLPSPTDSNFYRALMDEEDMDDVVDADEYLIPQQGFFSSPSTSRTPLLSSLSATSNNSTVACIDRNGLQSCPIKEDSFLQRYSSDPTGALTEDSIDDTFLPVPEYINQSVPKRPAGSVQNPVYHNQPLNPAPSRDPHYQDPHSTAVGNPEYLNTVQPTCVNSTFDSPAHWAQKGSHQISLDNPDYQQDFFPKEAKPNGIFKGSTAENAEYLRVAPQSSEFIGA
T2 sequence (P00533 712-979 L858R limits assumed): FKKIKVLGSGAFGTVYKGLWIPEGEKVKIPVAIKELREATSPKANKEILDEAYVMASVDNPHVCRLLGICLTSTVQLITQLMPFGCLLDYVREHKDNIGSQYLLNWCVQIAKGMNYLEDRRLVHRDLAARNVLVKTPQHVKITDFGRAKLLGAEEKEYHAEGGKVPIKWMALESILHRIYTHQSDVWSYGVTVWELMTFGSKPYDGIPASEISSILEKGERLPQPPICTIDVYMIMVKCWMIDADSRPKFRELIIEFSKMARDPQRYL
T4 sequence (P00533 25-1210 L858R): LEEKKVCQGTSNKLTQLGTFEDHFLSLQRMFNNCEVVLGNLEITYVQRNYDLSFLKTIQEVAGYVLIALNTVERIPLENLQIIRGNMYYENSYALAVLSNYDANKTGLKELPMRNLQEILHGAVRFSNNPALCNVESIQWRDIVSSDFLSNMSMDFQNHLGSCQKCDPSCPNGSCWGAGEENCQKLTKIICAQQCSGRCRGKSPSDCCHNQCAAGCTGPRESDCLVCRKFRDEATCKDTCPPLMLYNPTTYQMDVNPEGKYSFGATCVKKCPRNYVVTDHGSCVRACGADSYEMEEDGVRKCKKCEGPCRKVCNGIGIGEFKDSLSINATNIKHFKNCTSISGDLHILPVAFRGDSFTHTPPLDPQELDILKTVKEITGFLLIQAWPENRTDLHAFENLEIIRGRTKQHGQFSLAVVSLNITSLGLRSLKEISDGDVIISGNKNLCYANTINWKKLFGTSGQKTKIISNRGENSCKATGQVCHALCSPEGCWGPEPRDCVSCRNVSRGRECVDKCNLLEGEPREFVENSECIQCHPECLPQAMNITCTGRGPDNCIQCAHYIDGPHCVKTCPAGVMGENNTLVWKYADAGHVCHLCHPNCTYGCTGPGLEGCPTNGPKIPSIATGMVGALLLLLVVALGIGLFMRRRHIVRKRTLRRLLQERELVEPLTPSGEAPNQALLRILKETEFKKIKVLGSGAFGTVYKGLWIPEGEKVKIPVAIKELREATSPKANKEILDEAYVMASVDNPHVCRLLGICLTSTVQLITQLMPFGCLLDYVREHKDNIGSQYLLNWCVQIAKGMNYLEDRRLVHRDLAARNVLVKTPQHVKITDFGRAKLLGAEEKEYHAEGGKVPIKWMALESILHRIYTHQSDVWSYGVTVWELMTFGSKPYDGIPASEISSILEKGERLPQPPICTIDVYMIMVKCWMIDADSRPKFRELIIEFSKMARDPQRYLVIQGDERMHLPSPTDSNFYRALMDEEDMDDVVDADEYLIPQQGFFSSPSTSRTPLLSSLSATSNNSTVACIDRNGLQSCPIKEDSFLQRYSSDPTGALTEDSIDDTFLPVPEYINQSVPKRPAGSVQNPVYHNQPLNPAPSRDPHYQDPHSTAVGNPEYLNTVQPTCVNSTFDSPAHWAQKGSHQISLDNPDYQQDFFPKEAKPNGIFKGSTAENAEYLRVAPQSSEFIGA

Turning to `Cc1c(-c2ccc(N3CCOCC3)cc2)cc(C(F)F)c2cn(C(C(=O)Nc3nccs3)c3ncn4c3CCC43CC3)nc12` (stereo not shown) [Example 3, 2-[4-(Difluoromethyl)-7-methyl-6-(4-morpholinophenyl)indazol-2-yl]-2-spiro[6,7-dihydropyrrol[1,2-c]imidazole-5,1′-cyclopropane]-1-yl-N-thiazol-2-yl-acetamide], the hepatocyte CLint at 1 μM came to 5.9 µL/min/1e6 cells in data set [1] (human) and 25 µL/min/1e6 cells in data set [1] (mouse). For the same compound, the “changes in body weight” value in [2] is given as “No significant changes in body weight”.
For `Cc1c(C#Cc2ccc(CN3CCC(CO)CC3)cc2)cc(C(F)F)c2cn(C(C(=O)Nc3nccs3)c3ncn4c3CCC4)nc12` (stereo not shown) [Example 5, 2-[4-(Difluoromethyl)-6-[2-[4-[[4-(hydroxymethyl)-1-piperidyl]methyl]phenyl]ethynyl]-7-methyl-indazol-2-yl]-2-(6,7-dihydro-5H-pyrrolo[1,2-c]imidazol-1-yl)-N-thiazol-2-yl-acetamide], the hepatocyte CLint at 1 μM in [1] (human) was found to be 2.4 µL/min/1e6 cells; in data set [1] (mouse), 36 µL/min/1e6 cells.
In turn, `O=C(Nc1nccs1)C(c1cc(F)ccc1O)N1Cc2ccc(-c3ccc(N4CCNCC4)cc3)cc2C1=O` (stereo not shown) [JBJ-04-125-02, reference compound] returned a concentration for 50% growth inhibition (GI50) in data set [3] (72 hours, first value of IC50/IC90) of 30 nM. In addition, in data set [3] (read-out: Viability IC90 L858R/T790M/C797S, 72 hours, second value of IC50/IC90), the IC90 was 40 nM.
Take `Cc1c(-c2ccc(N3CCOCC3)cc2)cc(C(F)F)c2cn(C(C(=O)Nc3nccs3)c3ncn4c3C[C@@H](F)C4)nc12` (stereo partly drawn) [Example 2, 2-[4-(Difluoromethyl)-7-methyl-6-(4-morpholinophenyl)indazol-2-yl]-2-[(6R)-6-fluoro-6,7-dihydro-5H-pyrrolo[1,2-c]imidazol-1-yl]-N-thiazol-2-yl-acetamide]: the values for the intrinsic metabolic clearance (hepatocyte CLint) at 1 μM in data set [1] (human) and in data set [1] (mouse) were 6.1 µL/min/1e6 cells and 21 µL/min/1e6 cells, respectively.
Consider `O=C(Nc1nccs1)C(c1ncn2c1C[C@@H](F)C2)n1cc2c(Cl)cc(-c3ccc(N4CCOCC4)cc3)c(Cl)c2n1` (stereo partly drawn) [Example 1, 2-[4,7-Dichloro-6-(4-morpholinophenyl)indazol-2-yl]-2-[(6R)-6-fluoro-6,7-dihydro-5H-pyrrolo[1,2-c]imidazol-1-yl]-N-thiazol-2-yl-acetamide], for which the intrinsic metabolic clearance (hepatocyte CLint) at 1 μM in data set [1] (human) was 3.5 µL/min/1e6 cells; in data set [1] (mouse), 16 µL/min/1e6 cells. The figures for the IC50 on EGFR^L858R/T790M, against EGFR WT [5] and at EGFR^L858R were 7 nM, around 2000 nM and 16 nM, respectively. In data set [4] (global fitting of the kinetic data, osimertinib in presence of the allosteric inhibitor), the “increase of the residence time of osimertinib” value is “around 120 fold”. Besides, in data set [4] (stopped-flow fluorescence), the “reaction of osimertinib with the EGFR kinase domain (L858R) in presence of the allosteric inhibitor” value is “reacts faster”.
Consider `O=C(Nc1nccs1)C(c1ncn2c1CCC2)n1cc2c(F)cc(C#Cc3ccc(CN4CCC(O)CC4)cc3)cc2n1` (stereo not shown) [Example 4, 2-(6,7-Dihydro-5H-pyrrolo[1,2-c]imidazol-1-yl)-2-(4-fluoro-6-((4-((4-hydroxypiperidin-1-yl)methyl)phenyl)ethynyl)-2H-indazol-2-yl)-N-(thiazol-2-yl)acetamide], for which the GI50 in [6] was determined as 800 nM.
For the compound `Cc1c(C#Cc2ccc(CN3CCC(CO)CC3)cc2)cc(C(F)F)c2cn(C(C(=O)Nc3nccs3)c3ncn4c3CCC43CC3)nc12` (stereo not shown) [Example 6], the values for the hepatocyte CLint at 1 μM in data set [1] (human) and in data set [1] (mouse) were 1 µL/min/1e6 cells and 25 µL/min/1e6 cells, respectively. In addition, the half-maximal inhibitory concentration (IC50) amounted to 8 nM on EGFR^L858R/T790M, 577 nM on EGFR WT [7], 545 nM against EGFR WT [5] and 16 nM at EGFR^L858R. Also, the “changes in body weight” value in [2] and in data set [8] was “No significant changes in body weight” throughout.
